System: A549 lung cancer cells
Assay: Cell death / cell survival by trypan blue exclusion
Assay type: cell-based, human
Settings: A549, 1 μM, FIG. 36 top panel
Method: A549 (human lung adenocarcinoma) cells and MDA-MB-231 (human breast adenocarcinoma) cells were cultured in DMEM medium containing 10% FBS and 1% Penicillin/Streptomycin. IMR-90 (human non-malignant lung fibroblast) cells were cultured in EMEM medium containing 10% FBS and 1% Penicillin/Streptomycin. MCF10A (human non-malignant breast epithelial) cells in MEBM containing 10% FBS. Cell viability after treatment was determined using 3-(4,5-dimethylthiazol-2-yl)-2,5-diphenyltetrazolium bromide (MTT). After 72 h treatment with compound, a 5 mg/ml solution MTT of (Sigma, St. Louis, Mo.) was added in at 1/10 total sample volume. Cells were then incubated for 4 h. Lysis buffer (10% SDS in 0.01 N HCl) was added at half of the original sample volume and incubated overnight. Plates were read at 570 nm. Graphs indicate average of one or two experiments (performed in quadruplet wells)±SEM. Cell death in A549 cells was assessed by trypan blue exclusion. […] ROS production in A549 lung cancer cells after 48 h treatment with the compounds was assayed using ROS-Glo™ H2O2 Assay Kit (Promega).
A549 (human lung adenocarcinoma) cells and MDA-MB-231 (human breast adenocarcinoma) cells were cultured in DMEM medium containing 10% FBS and 1% Penicillin/Streptomycin. IMR-90 (human non-malignant lung fibroblast) cells were cultured in EMEM medium containing 10% FBS and 1% Penicillin/Streptomycin. […]

SMILES: CCOC(=S)N/N=C(C)/C(C)=N/NC(=S)NC [I-4]
- cell viability (trypan blue exclusion): less effective
